Like-named read-outs stand apart in the source and are kept apart here.
Key:
[1] = target: T1, HCV NS3/4A protease complex, BMS strain (UniProt P27958, species not given/STRAIN_BMS); assay: FRET peptide assay to monitor HCV NS3/4A proteolytic activity (BMS strain); format: biochemical, Hepatitis C virus (genotype 1a); settings: read-out: HCV Protease (IC50), NS3/4A BMS strain
T1 construct: other: NS3/4A BMS strain; activity range class; numeric values, unit not given; said of H77 and J4L6S; fused on or other part: A three-lysine solubilising tail at the C-terminus of NS4A; A His tag is implied by the pET21b vector and Ni-NTA purification; Both are printed for the H77 and J4L6S constructs and apply to BMS by inference
Description: HCV NS3 protease complexes, derived from the BMS strain, H77 strain or J4L6S strain, were generated, as described below. These purified recombinant proteins were generated for use in a homogeneous assay (see below) to provide an indication of how effective compounds of the present disclosure would be in inhibiting HCV NS3 proteolytic activity.
Serum from an HCV-infected patient was obtained from Dr. T. Wright, San Francisco Hospital. An engineered full-length cDNA (compliment deoxyribonucleic acid) template of the HCV genome (BMS strain) was constructed from DNA fragments obtained by reverse transcription-PCR (RT-PCR) of serum RNA (ribonucleic acid) and using primers selected on the basis of homology between other genotype 1a strains. From the determination of the entire genome sequence, a genotype 1a was assigned to the HCV isolate according to the classification of Simmonds et al. (See P Simmonds, K A Rose, S Graham, S W Chan, F McOmish, B C Dow, E A Follett, P L Yap and H Marsden, J. Clin. Microbiol., 31(6), 1493-1503 (1993)). […] The infectious clones, H77 (1a genotype) and J4L6S (1b genotype) were obtained from R. Purcell (NIH) and the sequences are published in Genbank (AAB67036, see Yanagi, M., Purcell, R. H., Emerson, S. U. and Bukh, J. Proc. Natl. Acad. Sci. U.S.A. 94(16), 8738-8743 (1997); AF054247, see Yanagi, M., St Claire, M., Shapiro, M., Emerson, S. U., Purcell, R. H. and Bukh, J. Virology 244 (1), 161-172. (1998)).
NS3/4A protease complex-containing fractions were pooled and loaded on a desalting column Superdex-S200 pre-equilibrated with buffer D (25 mM HEPES, pH 7.5, 20% glycerol, 300 mM NaCl, 0.2% Triton X-100, 10 mM βME). Sample was loaded at a flow rate of 1 mL/min. NS3/4A protease complex-containing fractions were pooled and concentrated to approximately 0.5 mg/ml. The purity of the NS3/4A protease complexes, derived from the BMS, H77 and J4L6S strains, were judged to be greater than 90% by SDS-PAGE and mass spectrometry analyses. The enzyme was stored at −80° C., thawed on ice and diluted prior to use in assay buffer.
The purpose of this in vitro assay was to measure the inhibition of HCV NS3 protease complexes, derived from the BMS strain, H77 strain or J4L6S strain, as described above, by compounds of the present disclosure. This assay provides an indication of how effective compounds of the present disclosure would be in inhibiting HCV NS3 proteolytic activity.
In order to monitor HCV NS3/4A protease activity, an NS3/4A peptide substrate was used. The substrate was RET S1 (Resonance Energy Transfer Depsipeptide Substrate; AnaSpec, Inc. cat #22991) (FRET peptide), described by Taliani et al. in Anal. Biochem. 240(2):60-67 (1996). The sequence of this peptide is loosely based on the NS4A/NS4B natural cleavage site for the HCV NS3 protease except there is an ester linkage rather than an amide bond at the cleavage site. The peptide also contains a fluorescence donor, EDANS, near one end of the peptide and an acceptor, DABCYL, near the other end. The fluorescence of the peptide is quenched by […] resonance energy transfer (RET) between the donor and the acceptor, but as the NS3 protease cleaves the peptide the products are released from RET quenching and the fluorescence of the donor becomes apparent.
The peptide substrate was incubated with one of the three recombinant NS3/4A protease complexes, in the absence or presence of a compound of the present disclosure. The inhibitory effects of a compound were determined by monitoring the formation of fluorescent reaction product in real time using a Cytofluor Series 4000.
Assay buffer: 50 mM HEPES, pH 7.5; 0.15 M NaCl; 0.1% Triton; 15% Glycerol; 10 mM βME. Substrate: 2 μM final concentration (from a 2 mM stock solution in DMSO stored at −20° C.). HCV NS3/4A protease type 1a (1b), 2-3 nM final concentration (from a 5 μM stock solution in 25 mM HEPES, pH 7.5, 20% glycerol, 300 mM NaCl, 0.2% Triton-X100, 10 mM βME). […]

[2] = test system: HCV replicon (strain 1b) in HUH-7 cells; assay: HCV replicon FRET assay; format: cell-based, Hepatitis C virus
Description: An HCV replicon whole cell system was established as described by Lohmann V, Korner F, Koch J, Herian U, Theilmann L, Bartenschlager R., Science 285(5424): 110-3 (1999). This system enabled us to evaluate the effects of our HCV Protease compounds on HCV RNA replication. Briefly, using the HCV strain 1b sequence described in the Lohmann paper (Assession number: AJ238799), an HCV cDNA was synthesized by Operon Technologies, Inc. (Alameda, Calif.), and the full-length replicon was then assembled in plasmid pGem9zf(+) (Promega, Madison, Wis.) using standard molecular biology techniques. The replicon consists of (i) the HCV 5′ UTR fused to the first 12 amino acids of the capsid protein, (ii) the neomycin phosphotransferase gene (neo), (iii) the IRES from encephalomyocarditis virus (EMCV), and (iv) HCV NS3 to NS5B genes and the HCV 3′ UTR. Plasmid DNAs were linearized with ScaI and RNA transcripts were synthesized in vitro using the T7 MegaScript transcription kit (Ambion, Austin, Tex.) according to manufacturer's directions. In vitro transcripts of the cDNA were transfected into the human hepatoma cell line, HUH-7. […] Resulting cell lines were characterized for positive and negative strand RNA production and protein production over time.
The HCV replicon FRET assay was developed to monitor the inhibitory effects of compounds described in the disclosure on HCV viral replication. HUH-7 cells, constitutively expressing the HCV replicon, were grown in Dulbecco's Modified Eagle Media (DMEM) (Gibco-BRL) containing 10% Fetal calf serum (FCS) (Sigma) and 1 mg/ml G418 (Gibco-BRL). Cells were seeded the night before (1.5×10^4 cells/well) in 96-well tissue-culture sterile plates. Compound and no compound controls were prepared in DMEM containing 4% FCS, 1:100 Penicillin/Streptomysin (Gibco-BRL), 1:100 L-glutamine and 5% DMSO in the dilution plate (0.5% DMSO final concentration in the assay). Compound/DMSO mixes were added to the cells and incubated for 4 days at 37° C. After 4 days, cells were first assessed for cytotoxicity using alamar Blue (Trek Diagnotstic Systems) for a CC50 reading. The toxicity of compound (CC50) was determined by adding 1/10th volume of alamarBlue to the media incubating the cells. After 4 hours, the fluorescence signal from each well was read, with an excitation wavelength at 530 nm and an emission wavelength of 580 nm, using the Cytofluor Series 4000 (Perspective Biosystems). Plates were then rinsed thoroughly with Phosphate-Buffered Saline (PBS) (3 times 150 μl).

[3] = Hepatitis C virus, Huh-7, read-out: HCV Pro Replicon (EC50), HCV replicon cell assay, activity range class
[4] = Hepatitis C virus, Huh-7, read-out: HCV Pro Replicon (EC50), HCV replicon cell assay, numeric values, unit inferred
[5] = read-out: HCV Pro Replicon (EC50), HCV replicon cell assay, activity range class

T1 sequence (P27958 1027-1657, change not shown, one chain of several): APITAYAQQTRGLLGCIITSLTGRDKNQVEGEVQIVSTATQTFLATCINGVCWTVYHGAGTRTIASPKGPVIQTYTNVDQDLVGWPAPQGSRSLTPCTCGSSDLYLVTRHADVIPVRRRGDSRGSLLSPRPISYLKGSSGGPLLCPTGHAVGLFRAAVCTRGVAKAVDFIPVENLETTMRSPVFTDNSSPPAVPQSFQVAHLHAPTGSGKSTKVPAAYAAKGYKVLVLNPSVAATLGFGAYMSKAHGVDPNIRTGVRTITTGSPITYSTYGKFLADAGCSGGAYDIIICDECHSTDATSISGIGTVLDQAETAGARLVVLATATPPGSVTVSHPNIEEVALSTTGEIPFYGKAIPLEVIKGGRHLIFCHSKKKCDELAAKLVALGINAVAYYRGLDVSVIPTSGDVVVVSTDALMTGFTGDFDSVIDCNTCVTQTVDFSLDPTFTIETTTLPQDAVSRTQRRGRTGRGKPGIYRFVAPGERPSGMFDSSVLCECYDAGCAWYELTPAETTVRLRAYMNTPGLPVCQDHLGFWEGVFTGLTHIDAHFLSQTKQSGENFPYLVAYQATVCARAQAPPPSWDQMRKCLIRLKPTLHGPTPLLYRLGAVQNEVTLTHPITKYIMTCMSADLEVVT

C=C[C@@H]1C[C@]1(NC(=O)[C@@H]1C[C@@H](Oc2nccc3cc(OC)ccc23)CN1C(=O)C(Nc1cc(C#N)ccn1)C(C)C)C(=O)NS(=O)(=O)C1CC1 (mixture of isomers) [Compound 11, N-(4-cyano-2-pyridinyl)valyl-(4R)—N-((1R,2S)-1-((cyclopropylsulfonyl)carbamoyl)-2-vinylcyclopropyl)-4-((6-methoxy-1-isoquinolinyl)oxy)-L-prolinamide]
IC50 ([1]; activity range class): 0.0006 to 0.02 µM
EC50 [2, 3]: 0.003 to 0.1 µM

C=C[C@@H]1C[C@]1(NC(=O)[C@@H]1C[C@@H](Oc2ncc(OC)c3ccc(Cl)cc23)CN1C(=O)C(Nc1cc(C)nc(C)c1)C(C)(C)C)C(=O)NS(=O)(=O)C1CC1 (single isomer, unassigned) [Compound 29B]
IC50 ([1]; numeric values, unit inferred): 0.249 µM
EC50 [2, 4]: 14.9 µM

C=C[C@@H]1C[C@]1(NC(=O)[C@@H]1C[C@@H](Oc2ncc(OC)c3ccc(Cl)cc23)CN1C(=O)C(Nc1cc(Cl)cc(Cl)n1)C(C)(C)C)C(=O)NS(=O)(=O)C1CC1 (single isomer, unassigned) [Compound 32A]
IC50 ([1]; numeric values, unit inferred): 0.001 µM
EC50 [2, 4]: 0.00359 µM

C=C[C@@H]1C[C@]1(NC(=O)[C@@H]1C[C@@H](Oc2ncc(OC)c3ccc(Cl)cc23)CN1C(=O)[C@@H](Nc1cccc(S(=O)(=O)NC)c1)C(C)(C)C)C(=O)NS(=O)(=O)C1CC1 [227 first isomer, 3-methyl-N-(3-(methylsulfamoyl)phenyl)-L-valyl-(4R)-4-((7-chloro-4-methoxy-1-isoquinolinyl)oxy)-N-((1R,2S)-1-((cyclopropylsulfonyl)carbamoyl)-2-vinylcyclopropyl)-L-prolinamide]
IC50 ([1]; activity range class): 0.0006 to 0.02 µM
EC50 [2, 3]: 0.003 to 0.1 µM

C=C[C@@H]1C[C@]1(NC(=O)[C@@H]1C[C@@H](Oc2nccc3cc(OC)ccc23)CN1C(=O)C(Nc1ccc(OC)nc1)C(C)(C)C)C(=O)NS(=O)(=O)C1CC1 (single isomer, unassigned) [407 second isomer]
IC50 ([1]; activity range class): 0.0006 to 0.02 µM
EC50 [2, 5]: 0.1 to 1 µM

C=C[C@@H]1C[C@]1(NC(=O)[C@@H]1C[C@@H](Oc2ncc(OC)c3ccc(Cl)cc23)CN1C(=O)[C@@H](Nc1ccc(S(N)(=O)=O)cc1)C(C)(C)C)C(=O)NS(=O)(=O)C1CC1 [Compound 215A, 3-methyl-N-(4-sulfamoylphenyl)-L-valyl-(4R)-4-((7-chloro-4-methoxy-1-isoquinolinyl)oxy)-N-((1R,2S)-1-((cyclopropylsulfonyl)carbamoyl)-2-vinylcyclopropyl)-L-prolinamide]
IC50 ([1]; activity range class): 0.0006 to 0.02 µM
EC50 [2, 3]: 0.003 to 0.1 µM

C=C[C@@H]1C[C@]1(NC(=O)[C@@H]1C[C@@H](Oc2ncc(OC)c3ccc(Cl)cc23)CN1C(=O)[C@@H](Nc1cccc(S(=O)(=O)NC(C)(C)C)c1)C(C)(C)C)C(=O)NS(=O)(=O)C1CC1 [206 first isomer, N-(3-(tert-butylsulfamoyl)phenyl)-3-methyl-L-valyl-(4R)-4-((7-chloro-4-methoxy-1-isoquinolinyl)oxy)-N-((1R,2S)-1-((cyclopropylsulfonyl)carbamoyl)-2-vinylcyclopropyl)-L-prolinamide]
IC50 ([1]; activity range class): 0.0006 to 0.02 µM
EC50 [2, 3]: 0.003 to 0.1 µM

C=C[C@@H]1C[C@]1(NC(=O)[C@@H]1C[C@@H](Oc2nccc3cc(OC)ccc23)CN1C(=O)[C@H](Nc1cc(C)cc(C)n1)C(C)C)C(=O)NS(=O)(=O)C1CC1 [Compound 1B, N-(4,6-dimethyl-2-pyridinyl)-D-valyl-(4R)—N-((1R,2S)-1-((cyclopropylsulfonyl)carbamoyl)-2-vinylcyclopropyl)-4-((6-methoxy-1-isoquinolinyl)oxy)-L-prolinamide]
IC50 ([1]; numeric values, unit inferred): 0.289 µM
EC50 [2, 4]: 1.64 µM

C=C[C@@H]1C[C@]1(NC(=O)[C@@H]1C[C@@H](Oc2nccc3cc(OC)ccc23)CN1C(=O)[C@@H](Nc1cccnc1)C(C)(C)C)C(=O)NS(=O)(=O)C1CC1 [13 first isomer, 3-methyl-N-3-pyridinyl-L-valyl-(4R)—N-((1R,2S)-1-((cyclopropylsulfonyl)carbamoyl)-2-vinylcyclopropyl)-4-((6-methoxy-1-isoquinolinyl)oxy)-L-prolinamide]
IC50 ([1]; activity range class): 0.02 to 0.2 µM
EC50 [2, 3]: 0.003 to 0.1 µM

C=C[C@@H]1C[C@]1(NC(=O)[C@@H]1C[C@@H](Oc2ncc(OC)c3ccc(Cl)cc23)CN1C(=O)[C@@H](Nc1ccc(C(=O)OC(C)(C)C)cc1)C(C)(C)C)C(=O)NS(=O)(=O)C1CC1 [204 first isomer, tert-butyl 4-((S)-1-((2S,4R)-4-(7-chloro-4-methoxyisoquinolin-1-yloxy)-2-((1R,2S)-1-(cyclopropylsulfonylcarbamoyl)-2-vinylcyclopropylcarbamoyl)pyrrolidin-1-yl)-3,3-dimethyl-1-oxobutan-2-ylamino)benzoate]
IC50 ([1]; activity range class): 0.0006 to 0.02 µM
EC50 [2, 5]: 0.003 to 0.1 µM
